Source: patent publication US20250186566A1, “CELL-BASED VACCINES” (Arkea Bio Corp., priority 2023, published 2025)
Read-outs that look alike come from different tables or passages of the source.

Key:
CH4 production = details: cited from earlier work
[1] = tested on: Mbb. Ruminantium, Ms. Mazei, and Mm. mobile; details: cited from earlier work
[2] = Adsorbent study: binding affinity and adsorptive capacity for 3NOP (HPLC at 230 nm)
Source text: The solution was then placed in an ultrasonic bath for ˜4 hr and then allowed to equilibrate over 24 hr.

goats = details: 10 g/day/goat; cited from earlier work
rumen methanogens = details: cited from earlier work; for suppression of CH4: bacteriocins, in vitro
[3] = 3NOP pH and temperature stability (HPLC); format: physicochemical; details: 1-month, 4-30° C., pH 4-10
Experimental: 3NOP pH and Temperature Stability: Confirmed via HPLC over a 1-month time period at temperature between 4-30° C. and pH 4-10.

[4] = 3NOP volatility (mass loss open to air); format: physicochemical; details: 500 mg open to air, 18-24° C., 15-30% RH, 6 days
Experimental: 3NOP Volatility:500 mg of 3NOP in a 5 dram vial was left open to air at ˜18-24° C. at 15-30% RH over the course of 6 days. Average mass loss is ˜0.25% per day.

[5] = 3NOP to adsorbent ratio study; format: physicochemical; details: distilled water at 1% 3NOP loading, 24 hr
Experimental: Optimal loading of 3NOP onto adsorbents was determined by varying ratios of 3NOP to adsorbent. 3NOP and adsorbent were speed mixed at 2000 rpm for 1 min. at the following ratios by weight: 1:1.5, 1:2, 1:2.5. The adsorbed 3NOP powder mixture was then placed in distilled water at 1% 3NOP loading. The solution was allowed to equilibrate for 24 hr and then an aliquot was taken for HPLC to determine the reduction in 3NOP concentration.

cattle = details: cited from earlier work
sheep = details: cited from earlier work
rumen Methanobrevibacter = details: 5.6 μmol/L, in vitro; cited from earlier work
[6] = 0.2 g of adsorbent in 10 mL of 1% 3NOP/H2O, after 24 hr, Control 8.258
[7] = dairy cows, 40-80 mg/kg feed DM
[8] = beef cattle, fed at […] of DM intake

## Oc1ccc(C=Cc2cc(O)cc(O)c2)cc1 [resveratrol]
CH4 production; 25 mg, high-concentrate diets
  maximum suppression methane amount: high-concentrate diets; 41%
CH4 production; 25 mg, high-forage diets
  maximum suppression methane amount: 25 mg, high-forage diets; 60%;

## O=c1[nH]c(=O)c2nccnc2[nH]1 [lumazin, 2,4-pteridinedione]
[1]; dose-dependent from 0.06 to 0.24 mmol/L
  CH4 production by pure methanogen cultures: significantly decreased

## CC[N+](=O)[O-] [NE]
CH4 production; 10 mmol/L
  maximum methane suppression amount: 10 mmol/L; 96.7% (NE), 96.7%

## O=[N+]([O-])O [Nitrate]
CH4 production; 5 mM (Liu et al., 2017)
  maximum methane suppression amount: 5 mM; 43.26% Liu et al., 2017)
CH4 production; 5 mmol/L (Wu et al., 2019)
  maximum methane suppression amount: 5 mmol/L: 32.92%
CH4 production; 20 mg/g dry matter (Alvarez-Hess et al. 2019)
  maximum methane suppression amount: 20 mg/g dry matter: 21%

## O=S(=O)([O-])[O-].O=S(=O)([O-])[O-].O=S(=O)([O-])[O-].[Bi+3].[Bi+3] [Bismuth Sulfate]
[2]; [6]
  3NOP concentration: 8.079 mM

## O=C(O)/C=C/C(=O)O [fumarate]
goats
  decrease of CH4 production: 11.9%
Rumen methanogens; 3.5 g/L, continuous fermenters with forages as a substrate
  decrease of CH4 production: 38%

## O=[N+]([O-])OCCCO [3NOP, 3-Nitrooxypropanol]
[3]
  pH and temperature stability: Confirmed
[4]
  Average mass loss: ~0.25 % per day
[5]; 3NOP:Adsorbent 1:1.5
  Average Integrated Area of 3NOP in solution: 2566.4
[5]; 3NOP:Adsorbent 1:2
  Average Integrated Area of 3NOP in solution: 2566.4
[5]; 3NOP:Adsorbent 1:2.5
  Average Integrated Area of 3NOP in solution: 2566.4
cattle; added to the rumen through rumen cannula, 0.50 or 2.5 g per cow daily
  degree of CH4 suppression: 7-10%
cattle; beef cattle, 2.0 g/day/cow
  decrease of CH4 yield: 59%
  persistence of inhibition: up to 112 days
cattle; [7]
  decrease of CH4 production: about 30%
  persistence of decrease: up to 84 days
sheep; 0.5 g/day
  decrease of CH4 production: 29%

## Nisin
Rumen methanogens
  suppression of CH4: up to 40%

## CC[C@H](C)C(=O)O[C@H]1CCC=C2C=C[C@H](C)[C@H](CC[C@@H]3C[C@@H](O)CC(=O)O3)[C@H]21 [mevastatin]
Rumen Methanobrevibacter
  growth of three strains of rumen Methanobrevibacter: inhibited the growth

## Bovicin HC5
Rumen methanogens
  suppression of CH4: 50%

## ClCBr [BCM, bromochloromethane]
cattle; steers fed grain-based diets
  toxicity / residues: no signs of toxicity or residues in meat

## O=C(O)/C=C/c1ccc(O)c(O)c1 [Caffeic acid]
CH4 production; 12 mM
  maximum suppression methane amount: 12 mM, Caffeic acid; 37.58%;

## CC[C@H](C)C(=O)O[C@H]1C[C@@H](C)C=C2C=C[C@H](C)[C@H](CC[C@@H]3C[C@@H](O)CC(=O)O3)[C@H]21 [lovastatin]
Rumen methanogens; Rusitec, 150 mg/L
  reduction of CH4 production: approximately 42%
Rumen methanogens; extracted from fermented rice straw, 48 h in vitro incubation
  reduction of total CH4 production by rumen methanogens: ~28%

## N[C@@H](CCC(=O)O)C(=O)O [Glutamic acid]
[5]; 3NOP:Adsorbent 1:1.5
  Average Integrated Area of 3NOP in solution: 2445.9
[5]; 3NOP:Adsorbent 1:2
  Average Integrated Area of 3NOP in solution: 2452.5
[5]; 3NOP:Adsorbent 1:2.5
  Average Integrated Area of 3NOP in solution: 2446.3

## O=C(O)CC(O)C(=O)O (stereo not drawn) [Malate]
cattle; [8]
  decrease of CH4 production: 16%
  reduction of CH4 per unit of DM intake: 9%

## NC(=O)CC[C@H](N)C(=O)O [Glutamine]
[2]; [6]
  3NOP concentration: 7.588 mM

## CC[N+](=O)[O-] [nitroethane]
sheep; orally 24 mg/kg body weight daily for 5 days
  decrease of CH4 production: up to 45%
sheep; orally 72 mg/kg body weight daily for 5 days
  decrease of CH4 production: ≤ 69%

## CC(CO)[N+](=O)[O-] (stereo not drawn) [2-nitropropanol]
cattle; steers
  lowering of CH4 production: 37%

## CC(CO)[N+](=O)[O-] (stereo not drawn) [NPOH]
CH4 production; 10 mmol/L
  maximum methane suppression amount: (NEOH), 41.7% (NPOH)

## O=[N+]([O-])OCCCO [3-Nitrooxypropanol (NOP)]
CH4 production; 0.08 mg/g dry matter (2019)
  maximum methane suppression amount: 0.08 mg/g dry matter; 44%
CH4 production; 1.6 g, concentrate pellet
  maximum methane suppression amount: 23%
CH4 production; 1.6 g, roughage
  maximum methane suppression amount: 28%

## NCCCC[C@H](N)C(=O)O [Lysine]
[5]; 3NOP:Adsorbent 1:1.5
  Average Integrated Area of 3NOP in solution: 2336.2
[5]; 3NOP:Adsorbent 1:2
  Average Integrated Area of 3NOP in solution: 2308.9
[5]; 3NOP:Adsorbent 1:2.5
  Average Integrated Area of 3NOP in solution: 2266.6
[2]
  3NOP concentration: 18.583 mM

## CC[C@@]1([C@@H]2O[C@@H]([C@H]3O[C@@](O)(CO)[C@H](C)C[C@@H]3C)C[C@@H]2C)CC[C@H]([C@]2(C)CC[C@]3(C[C@H](O)[C@@H](C)[C@@H]([C@@H](C)[C@@H](OC)[C@H](C)C(=O)O)O3)O2)O1 [monensin]
cattle; 60 mg/day/cow
  CH4 production by tropical cattle: did not lower CH4 production
cattle; 10-15 ppm
  CH4 suppression: no CH4 suppression
cattle; fed at 24-35 mg/kg diet
  lowering of CH4 production (g/kg DM intake): up to 10%
cattle; tropical cattle, 250 mg/day/cow
  decrease of CH4 production: about 30%

## ClC(Cl)Cl [chloroform]
cattle; drenching to cattle
  duration of inhibition of methanogenesis: up to 32 days

## C[N+](C)(C)CC(=O)O [Betaine]
[2]; [6]
  3NOP concentration: 7.202 mM

## O=[N+]([O-])CCO [NEOH]
CH4 production; 10 mmol/L
  maximum methane suppression amount: 10 mmol/L; 96.7% (NE), 96.7%

## C#CC(=O)O [propynoic acid]
Rumen methanogens; 6 mmol/L
  lowering of CH4 production: 67%
Rumen methanogens; 12 mmol/L
  lowering of CH4 production: 78%

## O=C(O)/C=C/c1ccc(O)cc1 [p-coumaric acid]
CH4 production; 12 mM
  maximum suppression methane amount: p-coumaric acid; 28.33%

## Cyclodextrin
[2]; [6]
  3NOP concentration: 7.676 mM

## O=S(=O)(O)CCCBr [BPS, 3-bromopropanesulfonate]
[1]; up to 250 μmol/L in pure cultures
  sensitivity of methanogens: resistant

## N=C(N)NCCC[C@H](N)C(=O)O [Arginine]
[5]; 3NOP:Adsorbent 1:1.5
  Average Integrated Area of 3NOP in solution: 2406.0
[5]; 3NOP:Adsorbent 1:2
  Average Integrated Area of 3NOP in solution: 2372.8
[5]; 3NOP:Adsorbent 1:2.5
  Average Integrated Area of 3NOP in solution: 2435.2

## Lactobacillus plantarum
CH4 production; 5.3 lg cfu/g fresh weight, 72 h
  maximum suppression methane amount: Lactobacillus plantarum, 8.8 ml/g(72 h)

## O=S(=O)([O-])[O-].[Cu+2] [Copper Sulfate]
[2]; [6]
  3NOP concentration: 7.814 mM

## O=C([O-])CC(O)(CC(=O)[O-])C(=O)[O-].[Bi+3] [Bismuth Citrate]
[2]; [6]
  3NOP concentration: 8.072 mM
